Assay results as given in patent US20100190737A1, “COMPOSITIONS COMPRISING INOSINE AND OROTIC ACID AND METHODS OF USE THEREOF FOR THE TREATMENT OF CERTAIN HEART CONDITIONS AND ENHANCEMENT OF WORK CAPACITY” (NUTRITIONAL RESEARCH GROUP LLC, priority 2009, published 2010).

What was measured:
[1] = test system: rats with experimental aortic stenosis; assay: Short term (7 day) experimental aortic stenosis: heart weight and swimming to exhaustion; type: in vivo, rat; details: EAS rats; for Heart Weight: intragastric daily
Source text: There are two 7 day experiments in this portion of the study; a preliminary 7 day study with 54 rats in 9 groups (6 rats per group) to determine optimal dosage levels for the separate inosine or potassium orotate ingredients for farther experimentation by determination of maximal heart weight development and work capacity; and then a study with 30 rats in 5 groups (6 rats per group) using the optimal single ingredient dosage levels for comparison with the results of a composition of the ingredients. All compounds were administered intragastrically through a tube after being dissolved in approximately 1 ml of water.
A single control group received a sham operation, while the rest of the groups received experimental aortic stenosis (“EAS”) operations (all according to Beznak in Journal Physiol. (Lond.) 120.23P, 1953 as modified by Kogan, Bull eksper. Biol. Med., 26:112, 1961 and then the other 13 groups received various treatments and dosages of inosine or potassium orotate or a composition of the two ingredients after the optimal inosine and potassium orotate dosages were determined. All animals were tested at the beginning and end of the experiment for swimming to exhaustion times with a 7.5% body weight load attached to their tails.
Sach compound, i.e., inosine and potassium orotate, was administered at different doses and the level of heart hypertrophy and work capacity was observed. Each of the compounds was evaluated in four doses: 12.5 mg/kg, 25 mg/kg, 50 mg/kg and 100 mg/kg body weight. Six animals were used in each group for inosine [4 groups] and potassium orotate [4 groups] plus the one control group (sham operated, no treatment); 54 animals in total.
Thirty white rats were divided into 5 groups (6 animals in each group). Group I was a sham-operated control group, Group II animals with experimental aortic stenosis but were untreated, Groups III, IV & V animals, all with experimental aortic stenosis received by an intragastric tube each day, either inosine (25 mg/kg body weight), potassium orotate (50 mg/kg body weight) or an composition of inosine (25 mg/kg body weight) plus potassium orotate (50 mg/kg body weight), respectively.

[2] = test system: chinchilla rabbits with experimental myocardial infarction; assay: Experimentally-induced myocardial infarction (coronary artery ligation); type: in vivo, rabbit; details: for NN of Animals With Necrosis: of 10 animals; for EKG Q: oral 100 mg/kg BW of each ingredient daily
Description: Histological, light microscopic methods of investigation have been employed to study the zone of necrosis, perinecrotic zone and myocardium regions spaced from the time of infarction by 7 and 14 days after the infarction event. Dynamic electrocardiographic observation over the animals was carried out during the first day and during the following 7 and 14 days. The study of the total cross-sectional patterns of a rabbit's heart has made it possible to precisely define these zones. The first Group of 10 animals was sham-operated without treatment (Group I, positive control-Intact, no MI). […] Group II animals were without treatment (negative control-MI Control).

mice = assay: Short term (14 day) work capacity: swimming lengths within 30 minutes, hepatic glycogen; type: in vivo, mouse
Description: Seventy two animals (mice) were divided into 12 groups of 6 animals each; a control group (untreated) and 11 test groups that were intragastrically administered varying daily doses of inosine, potassium orotate or an inosine plus potassium orotate combination (the “combination”) for 14 days. […] The swimming exercise consisted of forcing the animals to perform repetitive swimming in a three meter long channel until exhaustion. The level of exhaustion was determined by a count of the number of swimming lengths which each animal did within 30 minutes. A lower number of swimming lengths indicated a greater level of exhaustion, whereas a higher number of lengths indicated a greater work capacity.

[3] = seventh day, inosine 25 mg/kg BW, potassium orotate 50 mg/kg BW, alone or together
[4] = seventh day, inosine 25 mg/kg BW, potassium orotate 50 mg/kg BW, alone or together, listed as Inosine

## OC[C@H]1O[C@@H](n2cnc3c(O)ncnc32)[C@H](O)[C@@H]1O [inosine]
[1]; day 7, 12.5 mg/kg intragastrically, EAS control 15±5.0, sham 62±5.0
  swimming time: 18 ± 2.0 min
[1]; day 7, 25 mg/kg
  swimming time: 28 ± 3.0 min
[1]; day 7, 50 mg/kg
  swimming time: 29 ± 3.0 min
[1]; day 7, 100 mg/kg
  swimming time: 27.0 ± 3.0 min
[1]; seventh day, 12.5 mg/kg, EAS control 400±8.9, sham 300±5.0
  relative heart weight: 410±9.0 mg/100 g. body weight
[1]; seventh day, 25 mg/kg
  relative heart weight: 440±12 mg/100 g. body weight
[1]; seventh day, 50 mg/kg
  relative heart weight: 442±12 mg/100 g. body weight
[1]; seventh day, 100 mg/kg
  relative heart weight: 440±10 mg/100 g. body weight
[1]; [3]
  swimming time: 31 ± 3.0 min
  Heart Weight: 450±12 mg/100 gr BW
[1]; [4]
  Heart Weight: 450 ± 12 mg/100 gr BW
  swimming time: 31 ± 3.0 min
[2]; Day 7
  Thickness of Left Ventricular Wall: 5.2 ± 0.72 mm
  EKG Q: 1.1 ± 0.03 mm
[2]; Day 7, 100 mg/kg BW each
  EKG R: 4.1 ± 0.30 mm
[2]; Day 7, MI control 10
  NN of Animals With Necrosis: 5
[2]; Day 14
  EKG QRS: 0.068 ± 0.003 s
  EKG R: 4.3 ± 0.28 mm
  Thickness of Left Ventricular Wall: 5.6 ± 0.21 mm
  EKG Q: 0.8 ± 0.02 mm
[2]; Day 14, MI control 3
  NN of Animals With Necrosis: 0
[2]; administered individually, 100 mg/kg
  reduction in necroses: 50%
[2]; by the fourteenth day
  hemorrhages or infiltration in the infarction zone: virtually had no hemorrhages or infiltration in the infarction zone
[2]; by the seventh experimental day
  restoration of EKG readings: nearly a complete restoration of the voltage of EKG waves and of the systolic index
mice; 12.5 mg/kg BW daily for 14 days intragastrically, within 30 minutes, control 24.9
  Swimming lengths: 33.9
mice; 12.5 mg/kg/body weight daily, 14 days
  increase in number of swimming lengths: 35.4%
mice; 25 mg/kg BW, 14 days
  Swimming lengths: 46.4
mice; 25 mg/kg/body weight daily, 14 days
  increase in number of swimming lengths: 85.6%
mice; 50 mg/kg BW, 14 days
  Swimming lengths: 39.6
mice; 50 mg/kg/body weight daily, 14 days
  increase in number of swimming lengths: 58.5%
mice; 100 mg/kg BW, 14 days
  Swimming lengths: 31.1
mice; 100 mg/kg/body weight daily, 14 days
  increase in number of swimming lengths: 24.3%
mice; controls 67.5% from baseline
  mean decrease of hepatic glycogen stores during the swimming exercise: 24.5%
mice; inosine 25 mg/kg, potassium orotate 50 mg/kg, or combination
  increased hepatic glycogen content: 21%
